Assay results published in patent US10010619B2, “Bipartite inhibitors of bacterial RNA polymerase” (priority 2011, dated 2018).
pIC50: −log10 of the molar value. Converted amounts (≈) assume the structure as drawn. Read-outs that look alike come from different tables or passages of the source.

Legend:
[1] = target: T1, rifamycin-resistant Escherichia coli RNAP derivative ([Asn516]β-RNAP) (Escherichia coli, UniProt P0A8V2, D516N); assay: Fluorescence-detected RNA polymerase assay, rifamycin-resistant RNAP derivative; type: biochemical
T1 construct: made in house
Method: (§1) Fluorescence-detected RNA polymerase assays with E. coli RNA polymerase were performed by a modification of the procedure of Kuhlman et al., 2004 [Kuhlman, P., Duff, H. and Galant, A. (2004) A fluorescence-based assay for multisubunit DNA-dependent RNA polymerases. Anal. Biochem. 324, 183-190]. Reaction mixtures contained (20 μl): 0-100 nM test compound, 75 nM Escherichia coli RNA polymerase σ^70 holoenzyme or Escherichia coli RNA polymerase σ^70 holoenzyme derivative (prepared as in Feklistov, A., Mekler, V., Jiang, Q., Westblade, L., Irschik, H., Jansen, R., Mustaev, A., Darst, S., and Ebright, R. (2008) Proc. Natl. Acad. Sci. USA 105, 14820-14825), 20 nM 384 bp DNA fragment containing the bacteriophage […] N25 promoter, 100 μM ATP, 100 μM GTP, 100 μM UTP, 100 μM CTP, 50 mM Tris-HCl, pH 8.0, 100 mM KCl, 10 mM MgCl2, 1 mM DTT, 10 μg/ml bovine serum albumin, and 5.5% glycerol. Reaction components other than DNA and NTPs were pre-incubated for 10 min at 37° C. Reactions were carried out by addition of DNA and incubation for 5 min at 37° C., followed by addition of NTPs and incubation for 60 min at 37° C. DNA was removed by addition of 1 μl 5 mM CaCl2 and 2 U DNaseI (Ambion, Inc.), followed by incubation for 90 min at 37° C. RNA was quantified by addition of 100 μl RiboGreen RNA Quantitation Reagent (Invitrogen, Inc.; 1:500 dilution in Tris-HCl, pH 8.0, 1 mM EDTA), followed by incubation for 10 min at 25° C., followed by measurement of fluorescence intensity [excitation wavelength=485 nm and emission wavelength=535 nm; QuantaMaster QM1 spectrofluorimeter (PTI, Inc.)]. IC50 is defined as the concentration of inhibitor resulting in 50% inhibition of RNA polymerase activity.

[2] = tested on: Escherichia coli D21f2tolC; assay: Broth microdilution MIC, E. coli D21f2tolC; type: cell-based
Text: (§2) Minimum inhibitory concentrations (MICs) for Staphylococcus aureus ATCC 12600, Enterococcus faecalis ATCC 19433, Acinetobacter baumannii ATCC 19606, and Escherichia coli D21f2tolc (Fralick, J. and Burns-Keliher, L. (1994) J. Bacteriol. 176, 6404-6406) were quantified using broth microdilution assays as described [Clinical and Laboratory Standards Institute (CLSI/NCCLS) (2009) Methods for Dilution Antimicrobial Susceptibility Tests for Bacteria That Grow Aerobically; Approved Standard, Eighth Edition. CM Document M07-A8 (CLIS, Wayne Pa.)].

[3] = target: T2, GE23077-resistant Escherichia coli RNAP derivative ([Asp565]β-RNAP) (Escherichia coli, UniProt P0A8V2, E565D); assay: biochemical
T2 construct: made in house
Method: as §1, with “Reactions were carried out by addition of DNA and incubation for 5 min at 37° C., followed by addition of NTPs and incubation for 60 min at 37° C. DNA was removed by addition of 1 μl 5 mM CaCl2 and 2 U DNaseI (Ambion, Inc.), followed by incubation for 90 min at 37° C.” left out, “IC50 is defined as the concentration of inhibitor resulting in 50% inhibition of RNA polymerase activity.” left out

[4] = tested on: Staphylococcus aureus ATCC 12600; assay: Broth microdilution MIC, S. aureus; type: cell-based; details: ATCC12600
Text: as §2

[5] = tested on: Acinetobacter baumannii ATCC 19606; assay: Broth microdilution MIC, A. baumannii; type: cell-based; details: ATCC19606
Text: as §2

[6] = tested on: Enterococcus faecalis ATCC 19433; assay: Broth microdilution MIC, E. faecalis; type: cell-based; details: ATCC19433
Text: as §2

SMILES	pIC50 [1]	potency relative to rifamycin SV on [Asn516]β RNAP ([1]; ratio of IC50s, times higher than rifamycin SV) [times]	MIC [2] [µg/mL]	pIC50 [3]	potency relative to GE23077 on [Asp565]β RNAP ([3]; ratio of IC50s, times higher than GE23077)	MIC [4] [µg/mL]	MIC [5] [µg/mL]	MIC [6] [µg/mL]	pIC50 ([1]; read-out: IC50, rifamycin-resistant derivative of Escherichia coli RNAP [Asn516]β RNAP)
CO[C@H]1/C=C/O[C@@]2(C)Oc3c(C)c(O)c4c(O)c(c(NC(C)C(C)C(=O)NCC5NC(=O)CNC(=O)C(O)CNC(=O)C(C(C)O)NC(=O)C(C(O)C(O)C(N)=O)NC(=O)C(C(C)C)CC(=O)C(CO)NC5=O)c(O)c4c3C2=O)NC(=O)/C(C)=C\C=C\[C@H](C)C(O)C(C)[C@@H](O)[C@@H](C)[C@H](OC(C)=O)[C@@H]1C (stereo partly drawn) [compound 3, {rifamycin SV}-NH-{descarboxy-GE23077}]	6.82	80	2 (≈ 1.36 µM)	7.70	> 5,000 times	0.05 (≈ 0.034 µM)	10 (≈ 6.8 µM)	6 (≈ 4.08 µM)	
CO[C@H]1/C=C/O[C@@]2(C)Oc3c(C)c(O)c4c(O)c(cc(O)c4c3C2=O)NC(=O)/C(C)=C\C=C\[C@H](C)[C@H](O)[C@@H](C)[C@@H](O)[C@@H](C)[C@H](OC(C)=O)[C@@H]1C [rifamycin SV, reference compound]									4.92
